Measured values reported in the NIST ThermoML archive (doi:10.1016/j.fluid.2010.10.028).
± gives the expanded uncertainty stated by the source.

Assay: xn = mol fraction of the nth substance listed
Conditions: Liquid, Vibrating tube method

CC(C)=O [acetone] + CCCCCCC
Conditions	mass density [kg/m3]
397.28 K, 64890 kPa, x1 = 0.7024	708.2 ± 1.4
397.28 K, 69880 kPa, x1 = 0.7024	712.51 ± 1.5
397.28 K, 74860 kPa, x1 = 0.7024	716.61 ± 1.5
397.28 K, 74910 kPa, x1 = 0.492	698.27 ± 1.5
397.28 K, 74910 kPa, x1 = 0.801	727.94 ± 1.5
397.28 K, 74920 kPa, x1 = 0.611	707.37 ± 1.5
397.28 K, 79830 kPa, x1 = 0.7024	720.53 ± 1.5
397.28 K, 79900 kPa, x1 = 0.492	702.07 ± 1.6
397.28 K, 84840 kPa, x1 = 0.7024	724.33 ± 1.5
397.28 K, 84890 kPa, x1 = 0.492	705.69 ± 1.6
397.28 K, 89820 kPa, x1 = 0.7024	727.97 ± 1.6
397.28 K, 94800 kPa, x1 = 0.7024	731.49 ± 1.6
397.28 K, 94850 kPa, x1 = 0.492	712.56 ± 1.6
397.28 K, 99780 kPa, x1 = 0.7024	734.88 ± 1.6
397.28 K, 99820 kPa, x1 = 0.801	746.56 ± 1.6
397.28 K, 104760 kPa, x1 = 0.7024	738.15 ± 1.6
397.28 K, 109780 kPa, x1 = 0.801	753.14 ± 1.6
397.28 K, 114820 kPa, x1 = 0.7024	744.47 ± 1.7
397.28 K, 114850 kPa, x1 = 0.492	725.01 ± 1.7
397.28 K, 114850 kPa, x1 = 0.801	756.36 ± 1.6
397.28 K, 114870 kPa, x1 = 0.611	734.74 ± 1.7
397.28 K, 119800 kPa, x1 = 0.7024	747.44 ± 1.7
397.28 K, 119860 kPa, x1 = 0.611	737.69 ± 1.7
397.28 K, 124830 kPa, x1 = 0.7024	750.39 ± 1.7
397.28 K, 124840 kPa, x1 = 0.492	730.68 ± 1.8
397.28 K, 124840 kPa, x1 = 0.801	762.38 ± 1.7
397.28 K, 124860 kPa, x1 = 0.611	740.54 ± 1.8
397.28 K, 129790 kPa, x1 = 0.7024	753.19 ± 1.7
397.28 K, 129840 kPa, x1 = 0.492	733.39 ± 1.8
397.28 K, 129840 kPa, x1 = 0.611	743.3 ± 1.8
397.29 K, 19850 kPa, x1 = 0.492	638.92 ± 1.3
397.29 K, 24860 kPa, x1 = 0.492	646.54 ± 1.3
397.29 K, 39850 kPa, x1 = 0.492	665.68 ± 1.4
397.29 K, 49840 kPa, x1 = 0.492	676.28 ± 1.4
397.29 K, 69930 kPa, x1 = 0.492	694.29 ± 1.5
397.29 K, 89860 kPa, x1 = 0.492	709.18 ± 1.6
397.29 K, 99830 kPa, x1 = 0.492	715.82 ± 1.6
397.29 K, 104800 kPa, x1 = 0.492	718.94 ± 1.7
397.29 K, 109740 kPa, x1 = 0.7024	741.31 ± 1.6
397.29 K, 109770 kPa, x1 = 0.492	722 ± 1.7
397.29 K, 119840 kPa, x1 = 0.492	727.87 ± 1.8
407.2 K, 1850 kPa, x1 = 0.4	626.34 ± 1.2
407.2 K, 1850 kPa, x1 = 0.8992	626.34 ± 1.2
407.2 K, 5000 kPa, x1 = 0.4	635.78 ± 1.2
407.2 K, 5000 kPa, x1 = 0.8992	635.78 ± 1.2
407.2 K, 10000 kPa, x1 = 0.4	648.49 ± 1.2
407.2 K, 10000 kPa, x1 = 0.8992	648.49 ± 1.2
407.2 K, 14980 kPa, x1 = 0.4	659.29 ± 1.3
407.2 K, 14980 kPa, x1 = 0.8992	659.29 ± 1.2
407.2 K, 49890 kPa, x1 = 0.4	710.54 ± 1.4
407.2 K, 49890 kPa, x1 = 0.8992	710.54 ± 1.4
407.21 K, 1650 kPa, x1 = 0.611	594.88 ± 1.2
407.21 K, 1660 kPa, x1 = 0.801	612.07 ± 1.2
407.21 K, 4870 kPa, x1 = 0.611	604.63 ± 1.2
407.21 K, 4870 kPa, x1 = 0.801	621.91 ± 1.2
407.21 K, 9870 kPa, x1 = 0.611	617.29 ± 1.2
407.21 K, 14860 kPa, x1 = 0.801	645.72 ± 1.2
407.21 K, 14880 kPa, x1 = 0.611	627.98 ± 1.2
407.21 K, 19850 kPa, x1 = 0.801	655.22 ± 1.3
407.21 K, 19960 kPa, x1 = 0.4	668.77 ± 1.3
407.21 K, 19960 kPa, x1 = 0.8992	668.77 ± 1.3
407.21 K, 24940 kPa, x1 = 0.4	677.3 ± 1.3
407.21 K, 24940 kPa, x1 = 0.8992	677.3 ± 1.3
407.21 K, 29940 kPa, x1 = 0.4	685.05 ± 1.3
407.21 K, 29940 kPa, x1 = 0.8992	685.05 ± 1.3
407.21 K, 34930 kPa, x1 = 0.4	692.12 ± 1.3
407.21 K, 34930 kPa, x1 = 0.8992	692.12 ± 1.3
407.21 K, 39920 kPa, x1 = 0.4	698.68 ± 1.4
407.21 K, 39920 kPa, x1 = 0.8992	698.68 ± 1.3
407.21 K, 44900 kPa, x1 = 0.4	704.79 ± 1.4
407.21 K, 44900 kPa, x1 = 0.8992	704.79 ± 1.4
407.21 K, 54880 kPa, x1 = 0.4	715.92 ± 1.4
407.21 K, 54880 kPa, x1 = 0.8992	715.92 ± 1.4
407.21 K, 59880 kPa, x1 = 0.4	721.06 ± 1.4
407.21 K, 59880 kPa, x1 = 0.8992	721.06 ± 1.4
407.21 K, 64860 kPa, x1 = 0.4	725.91 ± 1.4
407.21 K, 64860 kPa, x1 = 0.8992	725.91 ± 1.4
407.21 K, 69840 kPa, x1 = 0.4	730.52 ± 1.5
407.21 K, 69840 kPa, x1 = 0.8992	730.52 ± 1.4
407.21 K, 74830 kPa, x1 = 0.4	734.95 ± 1.5
407.21 K, 74830 kPa, x1 = 0.8992	734.95 ± 1.5
407.21 K, 79810 kPa, x1 = 0.4	739.19 ± 1.5
407.21 K, 79810 kPa, x1 = 0.8992	739.19 ± 1.5
407.21 K, 84790 kPa, x1 = 0.4	743.24 ± 1.5
407.21 K, 84790 kPa, x1 = 0.8992	743.24 ± 1.5
407.21 K, 89780 kPa, x1 = 0.4	747.17 ± 1.5
407.21 K, 89780 kPa, x1 = 0.8992	747.17 ± 1.5
407.22 K, 1650 kPa, x1 = 0.492	588.49 ± 1.2
407.22 K, 4850 kPa, x1 = 0.492	597.92 ± 1.2
407.22 K, 9860 kPa, x1 = 0.801	634.81 ± 1.2
407.22 K, 19860 kPa, x1 = 0.611	637.25 ± 1.3
